Test results published in patent US20240216354A1, “IMMUNOMODULATORY IMIDE DRUGS AS ZETA-CHAIN-ASSOCIATED PROTEIN KINASE 70 (ZAP70) AGONISTS AND USES THEREOF” (Dana-Farber Cancer Institute, Inc., priority 2019, published 2024).

Molecular target: T1, Zap-70 (Homo sapiens, UniProt P43403)
T1 sequence (P43403 1-619): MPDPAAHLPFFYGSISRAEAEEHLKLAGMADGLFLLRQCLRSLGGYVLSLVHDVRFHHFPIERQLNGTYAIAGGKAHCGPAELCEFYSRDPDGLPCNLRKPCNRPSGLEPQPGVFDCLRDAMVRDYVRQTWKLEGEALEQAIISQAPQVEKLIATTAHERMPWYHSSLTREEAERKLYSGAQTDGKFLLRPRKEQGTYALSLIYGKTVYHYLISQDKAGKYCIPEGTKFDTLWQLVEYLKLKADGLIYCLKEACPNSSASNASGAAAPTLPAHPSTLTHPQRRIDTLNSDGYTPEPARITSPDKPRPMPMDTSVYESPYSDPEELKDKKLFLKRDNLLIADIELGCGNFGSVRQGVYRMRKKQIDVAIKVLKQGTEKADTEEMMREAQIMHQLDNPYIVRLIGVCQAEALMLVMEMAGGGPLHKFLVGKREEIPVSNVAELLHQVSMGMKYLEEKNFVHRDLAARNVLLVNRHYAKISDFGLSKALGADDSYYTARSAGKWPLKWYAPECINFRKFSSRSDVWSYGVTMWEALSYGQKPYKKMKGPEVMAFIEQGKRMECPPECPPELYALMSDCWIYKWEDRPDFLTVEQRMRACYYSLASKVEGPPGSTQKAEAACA
Assay: Pomalidomide-beads pull-down from Jurkat whole cell lysates
Assay type: binding
Set-up: purchased Origene, Rockville, MD
Details: competitor 1 mM free pomalidomide, 1 h
Protocol: (A) Jurkat cells were transfected with scrambled (Sc) siRNA or Zap-70 siRNA. Whole cell lysates were subjected to immunoblotting using indicated Abs. (B) Jurkat cells were treated with lenalidomide ([…]) or pomalidomide (1 and 3 μM) for 4 h and 8 h. Whole cell lysates were subjected to p-Zap ELISA assay. (C) Jurkat whole cell lysates were incubated with pomalidomide-beads in the presence or absence of competitor (1 mM free pomalidomide) for 1 h. After elution, samples were subjected to immunoblotting using anti-Zap-70 Ab. (D) Saturation-transfer difference resulting from the binding of pomalidomide to Zap-70. Pomalidomide is at 320 μM and Zap-70 is approximately 2 μM in deuterated PBS solution. […] (E) Saturation-transfer difference resulting from the binding of pomalidomide to Zap-70 in the presence of 2.56 mMATP. Pomalidomide is at 320 μM and Zap-70 is approximately 2 μM in deuterated PBS solution. […] Note that both ATP and pomalidomide show binding the Zap-70. (F) Non-cell based Zap-70 kinase assay was carried out, according to manufacturer's protocol.

`Nc1cccc2c1C(=O)N(C1CCC(=O)NC1=O)C2=O` (stereo not shown) [pomalidomide] was tested, and the “competition of Zap-70 pull-down by Pom-beads” value was “inhibited by free pomalidomide”.
